System: HCV GT-1b Con1 subgenomic replicon
Assay: HCV GT1b replicon luciferase reporter assay (2209-23 cells)
Type: cell-based
Conditions: Hepatitis C virus, 2209-23 cell line (Huh-7 with GT-1b Con1 subgenomic replicon), Renilla luciferase read 72 hours after compound addition
From the text: Determination of compounds HCV GT1b inhibitory replicon activity using the replicon luciferase reporter assay
The 2209-23 cell line was developed at Roche by stable transfection of the hepatoma cell line Huh-7 with a GT-1b Con1 subgenomic bicistronic replicon as previously described. Subgenomic replicon cell line was established in cured Huh7 cells, obtained from R. Bartenschlager (J. Virol. 2003 March; 77 (5):3007-19) The GT-1a H77 subgenomic replicon vector pRLuc H771b 75 S/I, was created by replacing the non structural region of the GT-1b Con1 subgenomic replicon by the one of the H77 strain, except for the first 75 amino acids of the NS3 protein that are from GT-1b Con1 strain. (J. Virol. 2001 77:5352-59) The GT-1a pRLuc H771b 75 S/I subgenomic replicon cell line was established in cured Huh7 cells, obtained from R. Bartenschlager. (J. Virol. 2003 March; 77 (5):3007-19)
All the subgenomic replicon cell lines were cultured in Dulbecco's Modified Eagle Medium (DMEM-Glutamax™-I; Invitrogen Cat #10569-010). The medium was supplemented with 10% Fetal Bovine Serum (Invitrogen Cat #10082-147), 1% penicillin/streptomycin (Mediatech Cat #30-002-CI) and 500 μg/ml of G418 (Mediatech Cat #30-234-CI). Cells were maintained at 37° C. in a humidified 5% CO2 atmosphere.
2209-23 cells were plated at a cell density of 5000 cells per well in 96 well plates (Becton Dickinson, Cat #35 3296). Cells were plated in 90 μl of Dulbecco's Modified Eagle Medium (DMEM-Glutamax™-I), (Invitrogen Cat #10569-010) medium was supplemented with 5% Fetal Bovine Serum (Invitrogen Cat #10082-147), 1% penicillin/streptomycin (Mediatech Cat #30-002-CI). The pRluc H771b 75 S/I cells were plated in 96-well plate at 3000 cells/well in DMEM-Glutamax™-I containing 5% FBS and 1% penicillin/streptomycin in 90 μl final volume. Cells were allowed to equilibrate for 24 hours at 37° C. and 5% CO2 at which time compounds were added. Compounds (or medium as a control) were added 24 hours post-plating in 3 fold dilutions at a final DMSO concentration of 1% in 10 ul volume. Renilla luciferase reporter signal was read 72 hours after addition of compounds using the Renilla Luciferase Assay System (Promega, cat #E2820). EC50 values were defined as the compound concentration at which a 50% reduction in the levels of renilla luciferase reporter was observed as compared to control samples in the absence of compound and was determined by non-linear fitting of compound dose-response data. The EC50 was approximated if maximum percentage inhibition was less than 90% and more than 70%.

COC(=O)N[C@H](C(=O)N1CCC[C@H]1C(=O)NC(=O)Nc1ccc(-c2ccc(-c3cnc([C@@H]4CCCN4C(=O)[C@@H](NC(=O)OC)C(C)C)[nH]3)cc2)cc1)C(C)C [Compound I-1, ((S)-1-{(S)-2-[3-(4′-{2-[(S)-1-((S)-2-Methoxycarbonylamino-3-methyl-butyryl)-pyrrolidin-2-yl]-3H-imidazol-4-yl}-biphenyl-4-yl)-ureidocarbonyl]-pyrrolidine-1-carbonyl}-2-methyl-propyl)-carbamic acid methyl ester]
IC50: 0.463 nM

COC(=O)N[C@H](C(=O)N1CCC[C@H]1C(=O)NC(=O)Nc1cccc(-c2ccc(-c3cnc([C@@H]4CCCN4C(=O)[C@@H](NC(=O)OC)C(C)C)[nH]3)cc2)c1)C(C)C [Compound I-2, ((S)-1-{(S)-2-[3-(4′-{2-[(S)-1-((S)-2-Methoxycarbonylamino-3-methyl-butyryl)-pyrrolidin-2-yl]-3H-imidazol-4-yl}-biphenyl-3-yl)-ureidocarbonyl]-pyrrolidine-1-carbonyl}-2-methyl-propyl)-carbamic acid methyl ester]
IC50: 8.42 nM

COC(=O)N[C@H](C(=O)N1CCC[C@H]1c1ncc(-c2ccc(-c3ccc(NC(=O)NC(=O)[C@@H]4CCCN4C(=O)[C@H](NC(=O)OC)c4ccccc4)cc3)cc2)[nH]1)C(C)C [Compound I-3, ((S)-1-{(S)-2-[5-(4′-{3-[(S)-1-((R)-2-Methoxycarbonylamino-2-phenyl-acetyl)-pyrrolidine-2-carbonyl]-ureido}-biphenyl-4-yl)-1H-imidazol-2-yl]-pyrrolidine-1-carbonyl}-2-methyl-propyl)-carbamic acid methyl ester]
IC50: 0.009 nM

COC(=O)N[C@H](C(=O)N1CCC[C@H]1c1ncc(-c2ccc(-c3ccc(NC(=O)NC(=O)[C@@H]4CCCN4C(=O)[C@@H](c4ccccc4)N(C)C)cc3)cc2)[nH]1)C(C)C [Compound I-4, ((S)-1-{(S)-2-[5-(4′-{3-[(S)-1-((R)-2-Dimethylamino-2-phenyl-acetyl)-pyrrolidine-2-carbonyl]-ureido}-biphenyl-4-yl)-1H-imidazol-2-yl]-pyrrolidine-1-carbonyl}-2-methyl-propyl)-carbamic acid methyl ester]
IC50: 0.007 nM

COC(=O)N[C@H](C(=O)N1CCC[C@H]1C(=O)NC(=O)NCc1ccc(-c2ccc(-c3cnc([C@@H]4CCCN4C(=O)[C@@H](NC(=O)OC)C(C)C)[nH]3)cc2)cc1)C(C)C [Compound I-5, ((S)-1-{(S)-2-[5-(4′-{3-[(S)-1-((S)-2-Methoxycarbonylamino-3-methyl-butyryl)-pyrrolidine-2-carbonyl]-ureidomethyl}-biphenyl-4-yl)-1H-imidazol-2-yl]-pyrrolidine-1-carbonyl}-2-methyl-propyl)-carbamic acid methyl ester]
IC50: 1.98 nM

COC(=O)N[C@H](C(=O)N1CCC[C@H]1c1ncc(-c2ccc(-c3ccc(CNC(=O)NC(=O)[C@@H]4CCCN4C(=O)[C@H](NC(=O)OC)c4ccccc4)cc3)cc2)[nH]1)C(C)C [Compound I-6, ((S)-1-{(S)-2-[5-(4′-{3-[(S)-1-((R)-2-Methoxycarbonylamino-2-phenyl-acetyl)-pyrrolidine-2-carbonyl]-ureidomethyl}-biphenyl-4-yl)-1H-imidazol-2-yl]-pyrrolidine-1-carbonyl}-2-methyl-propyl)-carbamic acid methyl ester]
IC50: 6.74 nM

COC(=O)N[C@H]1CCC(=O)N2CCC[C@@H](c3ncc(-c4ccc(-c5ccc(NC(=O)NC(=O)[C@@H]6CCCN6C(=O)[C@H](NC(=O)OC)c6ccccc6)cc5)cc4)[nH]3)N2C1=O [Compound I-7, {(4S,7S)-4-[5-(4′-{3-[(S)-1-((R)-2-Methoxycarbonylamino-2-phenyl-acetyl)-pyrrolidine-2-carbonyl]-ureido}-biphenyl-4-yl)-1H-imidazol-2-yl]-6,10-dioxo-octahydro-pyridazino[1,2-a][1,2]diazepin-7-yl}-carbamic acid methyl ester]
IC50: 0.427 nM

COC(=O)N[C@H](C(=O)N1CCC[C@H]1c1ncc(-c2ccc(-c3nc4ccc(NC(=O)NC(=O)[C@@H]5CCCN5C(=O)OC(C)(C)C)cc4s3)cc2)[nH]1)C(C)C [Compound I-8, (S)-2-{3-[2-(4-{2-[(S)-1-((S)-2-Methoxycarbonylamino-3-methyl-butyryl)-pyrrolidin-2-yl]-3H-imidazol-4-yl}-phenyl)-benzothiazol-6-yl]-ureidocarbonyl}-pyrrolidine-1-carboxylic acid tert-butyl ester]
IC50: 7.75 nM

COC(=O)N[C@H](C(=O)N1CCC[C@H]1C(=O)NC(=O)Nc1ccc2nc(-c3ccc(-c4cnc([C@@H]5CCCN5C(=O)[C@@H](NC(=O)OC)C(C)C)[nH]4)cc3)sc2c1)C(C)C [Compound I-9, [(S)-1-((S)-2-{5-[4-(6-{3-[(S)-1-((S)-2-Methoxycarbonylamino-3-methyl-butyryl)-pyrrolidine-2-carbonyl]-ureido}-benzothiazol-2-yl)-phenyl]-1H-imidazol-2-yl}-pyrrolidine-1-carbonyl)-2-methyl-propyl]-carbamic acid methyl ester]
IC50: 0.344 nM

COC(=O)N[C@H](C(=O)N1CCC[C@H]1c1ncc(-c2ccc(-c3ccc(NC(=O)NC(=O)[C@@H]4CCCN4C(=O)[C@H](NC(=O)OC)c4ccccc4)cn3)cc2)[nH]1)C(C)C [Compound I-10, [(S)-1-((S)-2-{5-[4-(5-{3-[(S)-1-((R)-2-Methoxycarbonylamino-2-phenyl-acetyl)-pyrrolidine-2-carbonyl]-ureido}-pyridin-2-yl)-phenyl]-1H-imidazol-2-yl}-pyrrolidine-1-carbonyl)-2-methyl-propyl]-carbamic acid methyl ester]
IC50: 0.041 nM

COC(=O)N[C@H](C(=O)N1CCC[C@H]1c1ncc(-c2ccc(-c3nc4ccc(NC(=O)NC(=O)[C@@H]5CCCN5C(=O)[C@@H](c5ccccc5)N(C)C)cc4s3)cc2)[nH]1)C(C)C [Compound I-11, [(S)-1-((S)-2-{5-[4-(6-{3-[(S)-1-((R)-2-Dimethylamino-2-phenyl-acetyl)-pyrrolidine-2-carbonyl]-ureido}-benzothiazol-2-yl)-phenyl]-1H-imidazol-2-yl}-pyrrolidine-1-carbonyl)-2-methyl-propyl]-carbamic acid methyl ester]
IC50: 0.029 nM

COC(=O)N[C@H](C(=O)N1CCC[C@H]1C(=O)NC(=O)Nc1ccc(-c2ccc(-c3cnc([C@@H]4CCCN4C(=O)[C@@H](NC(=O)OC)C(C)C)[nH]3)cc2)cc1F)C(C)C [Compound I-12, ((S)-1-{(S)-2-[5-(3′-Fluoro-4′-{3-[(S)-1-((S)-2-methoxycarbonylamino-3-methyl-butyryl)-pyrrolidine-2-carbonyl]-ureido}-biphenyl-4-yl)-1H-imidazol-2-yl]-pyrrolidine-1-carbonyl}-2-methyl-propyl)-carbamic acid methyl ester]
IC50: 0.064 nM
